This note sets out measurements from patent publication US20240254089A1, “MODULATORS OF MAS-RELATED G-PROTEIN RECEPTOR X4 AND RELATED PRODUCTS AND METHODS” (ESCIENT PHARMACEUTICALS, INC., priority 2020, published 2024).

The first assay deals with T1, human MRGPR X4 (Homo sapiens, UniProt Q96LA9).
T1 construct: expressed in transfected cells
T1 sequence (Q96LA9 whole entry): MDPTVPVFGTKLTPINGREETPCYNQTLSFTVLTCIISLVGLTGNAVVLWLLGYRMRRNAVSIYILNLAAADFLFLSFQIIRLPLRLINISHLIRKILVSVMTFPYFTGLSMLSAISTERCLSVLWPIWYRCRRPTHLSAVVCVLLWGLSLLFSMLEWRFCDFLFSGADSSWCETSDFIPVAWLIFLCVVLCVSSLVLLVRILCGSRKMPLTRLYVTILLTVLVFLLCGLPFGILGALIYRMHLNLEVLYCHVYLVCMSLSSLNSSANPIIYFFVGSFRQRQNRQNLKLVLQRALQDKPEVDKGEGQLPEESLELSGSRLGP
Put plainly: MRGPR X4 antagonist activity, IP-One Gq HTRF assay in stably transfected HEK cells. In kind it is cell-based.
Details: not given
How it is done:
HEK cells stably transfected to express human MIRGPR X4 were maintained in an incubator at 37° C. with 5% CO2 and grown in DMEM media with 10% fetal bovine serum (FBS) and […] each of sodium pyruvate, Glutamax, penicillin/streptomycin, and Geneticin. HEK cells stably transfected to express mouse MRGPR A1 were maintained in the same incubator and grown in DMEM media with 10% FBS, 1% each of sodium pyruvate, Glutamax, penicillin/streptomycin, Geneticin, and 2.2 mg/mL Hygromycin.
Cells were plated in a 384-well assay plate at 20,000 cells per well in 12 μL of Opti-MEM and kept in an incubator overnight. On the day of the assay, compounds solubilized at 10 mM in DMSO were added as a 10-point curve (10 uM final top concentration with 1:3 serial dilutions) using a Tecan D300E digital dispenser. Agonists were diluted in assay buffer (final concentrations of 5.7 mM Tris-HCl, 43 mM NaCl, 50 mM LiCl, pH=8) and 2 μL of the appropriate agonist are added to each well. Final concentrations of agonists were 10 μM bilirubin, 20 μM deoxycholic acid, or 100 μM conjugated bilirubin (obtained from Lee Biosolutions, catalog #910-12). Final concentrations of DMSO were kept consistent across the plate. Plates were incubated in the dark for 1 h at 37° C. and then for 30 minutes at room temperature. IP-1 standards and HTRF detection reagents were added according to the IP-One—Gq Kit purchased from Cisbio (part number 62IPAPEJ) and incubated in the dark for 1 h at room temperature. The plate was read on a Molecular Devices SpectraMax iD5 plate reader. The HTRF ratio was calculated from the raw data and graphed using GraphPad Prism to calculate an IC50 value for each compound.
(TR-FRET usually uses a lanthanide donor and a delayed reading to cut background.)
In turn, `Cc1cc(Cn2nc(C(=O)NCCc3nc4c(s3)CCCC4)c3ccccc32)ccc1Cl` [Compound 68] showed an IC50 of 100 to 500 nM.

For the molecule `Cc1ccc(Cn2nc(C(=O)NCCc3nc4c(s3)CCCC4)c3c(F)cccc32)cc1` [Compound 69], the IC50 lay within 100 to 500 nM.

The molecule `Cc1ccc(Cn2nc(C(=O)NCCc3cccnc3)c3c(F)cccc32)cc1` [Compound 70] had an IC50 of 501 to 1000 nM.

On to `O=C(NCCc1c[nH]c2ccccc12)c1nn(Cc2ccc(OC(F)F)cc2)c2ccccc12` [Compound 71], for which the IC50 was 501 to 1000 nM.

Consider `N#Cc1ccc(Cn2nc(C(=O)NCCc3cccnc3)c3ccccc32)cc1` [Compound 72], for which the IC50 is 501 to 1000 nM.

Consider `Cc1ccc(Cn2nc(C(=O)NCCc3c[nH]nn3)c3ccccc32)cc1` [Compound 73], for which the IC50 lay in the range of 501 to 1000 nM.

`CC(c1ccc(Cl)cc1)n1nc(C(=O)NCCc2nnc3n2CCCCC3)c2ccccc21` (stereo not shown) [Compound 74] returned an IC50 of 501 to 1000 nM.

Regarding `COc1cccc(CCNC(=O)c2nn(Cc3ccc(Cl)cc3)c3ccccc23)n1` [Compound 75], the IC50 lay within 501 to 1000 nM.

Molecule `Cc1ccc(Cn2nc(C(=O)NCCc3ccn(C)n3)c3ccccc32)cc1` [Compound 76] gave an IC50 of 501 to 1000 nM.

As for `Cc1cccnc1CCNC(=O)c1nn(Cc2ccc(Cl)cc2)c2ccccc12` [Compound 77], the IC50 was 501 to 1000 nM.

`Cc1ccc(Cn2nc(C(=O)NCCc3ccncc3)c3ccccc32)cc1` [Compound 78] displayed an IC50 of 501 to 1000 nM.

Molecule `CCc1nc(CCNC(=O)c2nn(Cc3ccc(Cl)cc3)c3ccccc23)sc1C` [Compound 79] returned an IC50 of 501 to 1000 nM.

Consider `Cc1nnc(CCNC(=O)c2nn(Cc3ccc(Cl)cc3)c3ccccc23)n1C` [Compound 80], for which the IC50 lay within 501 to 1000 nM.

The molecule `O=C(NCCc1nc2c(s1)CCCC2)c1nn(Cc2cccc(F)c2)c2ccccc12` [Compound 81] gave an IC50 of 501 to 1000 nM.

In turn, `O=C(NCCc1nc2c(s1)CCCC2)c1nn(Cc2ccc(OC(F)F)cc2)c2ccccc12` [Compound 82] showed an IC50 of 501 to 1000 nM.

Take `Cc1ccc(Cn2nc(C(=O)NCCc3noc(C4CC4)n3)c3ccccc32)cc1` [Compound 83]: the IC50 is 501 to 1000 nM.

For `Cc1ccc(Cn2nc(C(=O)NCCc3cc4ccccc4s3)c3ccccc32)cc1` [Compound 84], the IC50 was 501 to 1000 nM.

Regarding `Cc1ccc(Cn2nc(C(=O)NCCc3noc(C(C)C)n3)c3ccccc32)cc1` [Compound 85], the IC50 was in the range of 501 to 1000 nM.

`O=C(NCCc1ccc(C(F)(F)F)nc1)c1nn(Cc2ccc(Cl)cc2)c2ccccc12` [Compound 86]: the IC50 lay in the range of 501 to 1000 nM.

In the case of `O=C(NCCc1cccnc1)c1nn(Cc2cccc(Cl)c2)c2ccccc12` [Compound 87], the IC50 was in the range of 501 to 1000 nM.

The molecule `Cc1nc(CCNC(=O)c2nn(Cc3ccc(Cl)cc3)c3ccccc23)sc1C(=O)O` [Compound 88] yielded an IC50 of 501 to 1000 nM.

In turn, `O=C(NCCc1cccnc1)c1nn(Cc2ccccc2Cl)c2ccccc12` [Compound 89] gave an IC50 of 501 to 1000 nM.

In turn, `O=C(NCCc1ccno1)c1nn(Cc2ccc(Cl)cc2)c2ccccc12` [Compound 90] returned an IC50 of 501 to 1000 nM.

`CC(C)c1ccc(Cn2nc(C(=O)NCCc3ccccn3)c3ccccc32)cc1` [Compound 91]: the IC50 lay in the range of 501 to 1000 nM.

`COCCn1cnnc1CCNC(=O)c1nn(Cc2ccc(Cl)cc2)c2ccccc12` [Compound 92] gave an IC50 of 501 to 1000 nM.

The molecule `O=C(NCCc1c[nH]c2ccccc12)c1nn(Cc2ccc(OC(F)(F)F)cc2)c2ccccc12` [Compound 93] registered an IC50 of 1000 to 2500 nM.

`Cc1ccc(Cn2nc(C(=O)NCCc3cn(C)c4ccccc34)c3ccccc32)cc1` [Compound 94] yielded an IC50 of 1000 to 2500 nM.

For `O=C(NCCc1nc2c(s1)CCCC2)c1nn(Cc2ccccc2Cl)c2ccccc12` [Compound 95], the IC50 fell in the range of 1000 to 2500 nM.

The molecule `O=C(NCCc1cccnc1)c1nn(Cc2cccc(F)c2)c2ccccc12` [Compound 96] yielded an IC50 of 1000 to 2500 nM.

With `Cc1ccc(Cn2nc(C(=O)NCCc3cnccn3)c3ccccc32)cc1` [Compound 97], the IC50 was in the range of 1000 to 2500 nM.

Molecule `Cc1cc(Cl)ccc1Cn1nc(C(=O)NCCc2nc3c(s2)CCCC3)c2ccccc21` [Compound 98] showed an IC50 of 1000 to 2500 nM.

With `CC(C)n1cnnc1CCNC(=O)c1nn(Cc2ccc(Cl)cc2)c2ccccc12` [Compound 99], the IC50 fell in the range of 1000 to 2500 nM.

As for `O=C(NCCc1ccon1)c1nn(Cc2ccc(Cl)cc2)c2ccccc12` [Compound 100], the IC50 lay in the range of 1000 to 2500 nM.

As for `COc1cccc(Cn2nc(C(=O)NCCc3cccnc3)c3ccccc32)c1` [Compound 101], the IC50 lay within 1000 to 2500 nM.

Molecule `O=C(NCCc1cncnc1)c1nn(Cc2ccc(Cl)cc2)c2ccccc12` [Compound 102] showed an IC50 of 1000 to 2500 nM.

`Cc1ccc(Cn2nc(C(=O)NCCc3nc4ccccc4o3)c3ccccc32)cc1` [Compound 103] displayed an IC50 of 1000 to 2500 nM.

`Cc1ccc(Cn2nc(C(=O)NCCc3ccc[nH]3)c3ccccc32)cc1` [Compound 104] registered an IC50 of 1000 to 2500 nM.

For the molecule `O=C(NCCc1noc(-c2ccccc2)n1)c1nn(Cc2ccc(Cl)cc2)c2ccccc12` [Compound 105], the IC50 was in the range of 1000 to 2500 nM.

With `O=C(NCCc1nnc2n1CCCCC2)c1nn(Cc2ccc(-c3ccccc3)cc2)c2ccccc12` [Compound 106], the IC50 lay in the range of 1000 to 2500 nM.

For the molecule `Cc1ccc(Cn2nc(C(=O)NCCc3nncn3C)c3ccccc32)cc1` [Compound 107], the IC50 lay within 1000 to 2500 nM.

Molecule `CC(C)c1ccc(Cn2nc(C(=O)NCCc3nc4c(s3)CCCC4)c3ccccc32)cc1` [Compound 108] yielded an IC50 of 1000 to 2500 nM.

`Cc1ccc(Cn2nc(C(=O)NCCc3nc4c(s3)CCCC4)c3cc(Cl)ccc32)cc1` [Compound 110] had an IC50 of 1000 to 2500 nM.

`O=C(Nc1ccc2cccnc2c1)c1nn(Cc2ccc(Cl)cc2)c2ccccc12` [Compound 111] showed an IC50 of 1000 to 2500 nM.

Molecule `CC(C)(C)c1ccc(Cn2nc(C(=O)NCCc3ccccn3)c3ccccc32)cc1` [Compound 112] gave an IC50 of 1000 to 2500 nM.

On to `Cc1ccc(Cn2nc(C(=O)NCCc3ncnn3C)c3ccccc32)cc1` [Compound 113], for which the IC50 was in the range of 1000 to 2500 nM.

With `COc1cc(Cl)ccc1Cn1nc(C(=O)NCCc2cccnc2)c2ccccc21` [Compound 114], the IC50 was 1000 to 2500 nM.

Molecule `Cc1cccc(Cn2nc(C(=O)NCCc3cccnc3)c3ccccc32)c1` [Compound 115] gave an IC50 of 1000 to 2500 nM.

The molecule `Cc1ccc(Cn2nc(C(=O)NCCc3nnc4n3CCCCC4)c3cccc(F)c32)cc1` [Compound 116] displayed an IC50 of 1000 to 2500 nM.

Turning to `O=C(NCCc1cccc(C(F)(F)F)n1)c1nn(Cc2ccc(Cl)cc2)c2ccccc12` [Compound 117], the IC50 lay within 1000 to 2500 nM.

`CC(c1ccc(Cl)cc1)n1nc(C(=O)NCCc2nc3c(s2)CCCC3)c2ccccc21` (stereo not shown) [Compound 118] registered an IC50 of 1000 to 2500 nM.

In the case of `Cc1cc(C)nc(CCNC(=O)c2nn(Cc3ccc(Cl)cc3)c3ccccc23)n1` [Compound 119], the IC50 lay in the range of 1000 to 2500 nM.

Molecule `Cc1ccc(CCNC(=O)c2nn(Cc3ccc(OC(F)F)cc3)c3ccccc23)cc1` [Compound 120] returned an IC50 of 1000 to 2500 nM.

In the case of `O=C(NCCc1ccncn1)c1nn(Cc2ccc(Cl)cc2)c2ccccc12` [Compound 121], the IC50 was in the range of 1000 to 2500 nM.

As to `Cc1ccc(Cn2nc(C(=O)NCCc3ccco3)c3ccccc32)cc1` [Compound 122], the IC50 lay in the range of 1000 to 2500 nM.

In the case of `COc1cc(Cl)ccc1Cn1nc(C(=O)NCCc2nc3c(s2)CCCC3)c2ccccc21` [Compound 123], the IC50 was > 2500 nM.

As for `Cc1ccc(Cn2nc(C(=O)NCCc3ccnn3C)c3ccccc32)cc1` [Compound 124], the IC50 was > 2500 nM.

For the molecule `O=C(NCCc1cccnc1)c1nn(Cc2ccccc2F)c2ccccc12` [Compound 125], the IC50 is > 2500 nM.

Consider `Cc1ccc(Cn2nc(C(=O)NCCc3ncon3)c3ccccc32)cc1` [Compound 126], for which the IC50 was > 2500 nM.

Take `CC(Cc1ccccn1)NC(=O)c1nn(Cc2ccc(Cl)cc2)c2ccccc12` (stereo not shown) [Compound 127]: the IC50 was > 2500 nM.

With `Cc1ccc(Cn2nc(C(=O)NCCc3cnoc3)c3ccccc32)cc1` [Compound 128], the IC50 is > 2500 nM.

As for `O=C(Nc1cccnc1)c1nn(Cc2ccc(Cl)cc2)c2ccccc12` [Compound 130], the IC50 was > 2500 nM.

Regarding `O=C(NCCc1nc2c(s1)CCCC2)c1nn(Cc2ccc(Cl)cc2F)c2ccccc12` [Compound 131], the IC50 fell in the range of 100 to 500 nM.

In turn, `O=C(CNC(=O)c1nn(Cc2ccc(Cl)cc2)c2ccccc12)c1cccnc1` [Compound 132] showed an IC50 of 100 to 500 nM.

With `O=C(Nc1cncnc1)c1nn(Cc2ccc(Cl)cc2)c2ccccc12` [Compound 133], the IC50 is 1000 to 2500 nM.

`O=C(Nc1cnc2ccccc2c1)c1nn(Cc2ccc(Cl)cc2)c2ccccc12` [Compound 134]: the IC50 was in the range of 1000 to 2500 nM.

The assay is the same for the next values; noted with them: versus 20 μM deoxycholic acid agonist; HEK cells expressing human MRGPR X4; read-out: MRGPRX4 Antagonist Activity.
For the molecule `Cc1ccc(Cn2nc(C(=O)NCCc3nnc(C4CCOCC4)[nH]3)c3ccccc32)cc1` [Compound 109], the IC50 is 1000 to 2500 nM.

Regarding `O=C(NCCc1nnc(C2CCOCC2)[nH]1)c1nn(Cc2cccc(F)c2)c2ccccc12` [Compound 129], the IC50 was > 2500 nM.
